What follows are compounds tested against T1, human V1a receptor (Homo sapiens, UniProt P37288) (assay: human V1a receptor binding (3H-Vasopressin SPA, membranes of transfected HEK293 cells)). Conditions: not given.
T1 construct: expressed in transfected cells; host or cells: HEK293 cells, transiently transfected; membranes prepared
Experimental: The human V1a receptor was cloned by RT-PCR from total human liver RNA. The coding sequence was subcloned in an expression vector after sequencing to confirm the identity of the amplified sequence. […] Cell membranes were prepared from HEK293 cells transiently transfected with the expression vector and grown in 20 liter fermenters with the following protocol.
50 g of cells are resuspended in 30 ml freshly prepared ice cold Lysis buffer (50 mM HEPES, 1 mM EDTA, 10 mM MgCl2 adjusted to pH=7.4+ complete cocktail of protease inhibitor (Roche Diagnostics)). Homogenized with Polytron for 1 min and sonicated on ice for 2×2 minutes at 80% intensity (Vibracell sonicator). The preparation is centrifuged 20 min at 500 g at 4° C., the pellet is discarded and the supernatant centrifuged 1 hour at 43,000 g at 4° C. (19'000 rpm). The pellet is resuspended in 12.5 ml Lysis buffer+12.5 ml Sucrose 20% and homogenized using a Polytron for 1-2 min. The protein concentration is determined by the Bradford method, and aliquots are stored at −80° C. until use. For binding studies 60 mg Yttrium silicate SPA beads (Amersham) are mixed with an aliquot of membrane in binding buffer (50 mM Tris, 120 mM NaCl, 5 mM KCl, 2 mM CaCl2, 10 mM MgCl2) for 15 minutes with mixing. 50 ul of bead/membrane mixture is then added to each well of a 96 well plate, followed by 50 ul of 4 nM 3H-Vasopressin (American Radiolabeled Chemicals). For total binding measurement 100 ul of binding buffer are added to the respective wells, for non-specific binding 100 ul of […] cold vasopressin and for compound testing 100 ul of a serial dilution of each compound in 2% DMSO. The plate is incubated 1 h at room temperature, centrifuged 1 min at 1000 g and counted on a Packard Top-Count. Non-specific binding counts are subtracted from each well, and data is normalized to the maximum specific binding set at 100%. To calculate an IC 50 the curve is fitted using a non-linear regression model (XLfit) and the Ki is calculated using the Cheng-Prussoff equation.

T1 sequence (P37288 whole entry): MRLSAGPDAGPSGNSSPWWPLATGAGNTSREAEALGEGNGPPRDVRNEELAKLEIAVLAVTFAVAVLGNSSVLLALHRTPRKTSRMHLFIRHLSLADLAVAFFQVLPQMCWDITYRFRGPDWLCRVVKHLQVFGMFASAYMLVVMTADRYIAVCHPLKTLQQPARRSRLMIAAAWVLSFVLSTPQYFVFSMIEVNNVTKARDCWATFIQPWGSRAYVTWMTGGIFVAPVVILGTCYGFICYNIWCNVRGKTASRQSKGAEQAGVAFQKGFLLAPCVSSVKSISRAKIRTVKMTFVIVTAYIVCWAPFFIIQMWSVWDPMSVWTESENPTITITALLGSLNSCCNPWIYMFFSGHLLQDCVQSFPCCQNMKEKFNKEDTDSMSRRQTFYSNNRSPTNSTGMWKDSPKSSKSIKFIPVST

**Q.** For `COc1cccc(OC)c1C1CCN(C(=O)c2cn(Cc3cnccn3)c3cc(Cl)ccc23)CC1` [Example 50], which Ki is on record?
**A.** Its Ki is 4 nM.

Same assay, conditions: displacement of 4 nM 3H-Vasopressin, HEK293 cell membranes, Ki by Cheng-Prussoff from IC50; read-out: Ki

**Q.** Which Ki does the source give for `COc1ccccc1C1CCN(C(=O)c2cn(CC(=O)N(C)C)c3cc(Cl)ccc23)CC1` [Example 57, 2-{6-Chloro-3-[4-(2-methoxy-phenyl)-piperidine-1-carbonyl]-indol-1-yl}-N,N-dimethyl-acetamide] here?
**A.** Its Ki is 2 nM.

**Q.** With `CNC(=O)Cn1cc(C(=O)N2CCC(c3c(OC)cccc3OC)CC2)c2ccc(Cl)cc21` [Example 82, 2-{6-Chloro-3-[4-(2,6-dimethoxy-phenyl)-piperidine-1-carbonyl]-indol-1-yl}-N-methyl-acetamide] as the compound, how does the Ki read?
**A.** The Ki was 2 nM.

**Q.** Which Ki does the source give for `O=C(Cn1cc(C(=O)N2CCN(c3ccccc3F)CC2)c2ccc(Cl)cc21)N1CCNCC1` [Example 177, 2-{6-Chloro-3-[4-(2-fluoro-phenyl)-piperazine-1-carbonyl]-indol-1-yl}-1-piperazin-1-yl-ethanone] here?
**A.** The Ki was 8 nM.

**Q.** How did the Ki turn out when `CNC(=O)Cn1cc(C(=O)N2CCC(c3ccccc3OC)CC2)c2ccc(Cl)cc21` [Example 106, 2-{6-Chloro-3-[4-(2-methoxy-phenyl)-piperidine-1-carbonyl]-indol-1-yl}-N-methyl-acetamide] was run?
**A.** Its Ki is 5 nM.

**Q.** For `CN1CCN(C(=O)Cn2cc(C(=O)N3CCC(c4ccccc4F)CC3)c3ccc(Cl)cc32)CC1` [Example 117, 2-{6-Chloro-3-[4-(2-fluoro-phenyl)-piperidine-1-carbonyl]-indol-1-yl}-1-(4-methyl-piperazin-1-yl)-ethanone], which Ki is on record?
**A.** The Ki was 6 nM.

**Q.** With `CNC(=O)Cn1cc(C(=O)N2CCN(c3ccccc3OC)CC2)c2ccc(Cl)cc21` [Example 162, 2-{6-Chloro-3-[4-(2-methoxy-phenyl)-piperazine-1-carbonyl]-indol-1-yl}-N-methyl-acetamide] as the compound, how does the Ki read?
**A.** The Ki was 27 nM.

**Q.** With `CNC(=O)Cn1cc(C(=O)N2CCC(c3ccccc3F)CC2)c2ccc(Cl)cc21` [Example 111, 2-{6-Chloro-3-[4-(2-fluoro-phenyl)-piperidine-1-carbonyl]-indol-1-yl}-N-methyl-acetamide] as the compound, how does the Ki read?
**A.** The Ki was 7 nM.

**Q.** How did the Ki turn out when `COc1cccc(OC)c1C1CCN(C(=O)c2cn(Cc3ccnc(C)c3)c3cc(Cl)ccc23)CC1` [Example 63, [6-Chloro-1-(2-methyl-pyridin-4-ylmethyl)-1H-indol-3-yl]-[4-(2,6-dimethoxy-phenyl)-piperidin-1-yl]-methanone] was run?
**A.** Its Ki is 2 nM.

Source: US7781436B2 (Hoffmann-La Roche Inc., priority 2005, dated 2010)
